The values below are quoted from earlier work in patent publication US9481672B2 (priority 2012, dated 2016).

This data set has as its system chymase. To be noted: hamsters, myocardial infarction model.

Turning to `CCOc1ccccc1CC1C(=O)N(C(=O)NC(c2ccc(C)cc2)c2ccc(C)cc2)C1Oc1ccc(C(=O)O)cc1` (stereo not drawn) [BCEAB], the chymase activity result is recorded as “reduced”, the haemodynamics entry is “improved” and the mortality result was “reduced”.
